Patent publication US10736909B2, “Use of trehalose for treatment of neurological diseases” (JUNAXO, INC., priority 2016, dated 2020)
“And” between values parts separate entries of the source, which are not always exact repeats. Equal values may be shown once. “Also recorded” adds a separate entry of the source. Read-outs that look alike come from different tables or passages of the source.

Columns and labels:
[1] = Plasma and brain trehalose levels 30 min post-dose in rat efficacy study (LC-MS/MS); assay type: in vivo, Sprague-Dawley rats; details: rats; for concentration at 30 min: Sprague-Dawley, rat
Description: Animal behavior was assessed pre-surgery and at 3 and 6 weeks post-surgery. Behaviour was assessed by the cylinder test to assess forelimb asymmetry with asymmetry indicating an imbalance in striatal dopaminergic function between the side injected with AAV1/2 αSYN and the contralateral side. Compounds that normalize the forelimb asymmetry are potentially useful for treating PD. After 6 weeks of trehalose treatment, the animals were killed approximately 30 mins after the last administration of trehalose. Striatal tissue from both hemispheres was collected and analysed for dopamine levels. Substantia nigra tissue was collected and analysed for the number of TH^+ve cells and the amount of A53T αSYN measured. Plasma and brain (cerebellum) samples were collected and trehalose levels analysed by LC-MS/MS.
When the animals were killed 30 mins post trehalose administration plasma and brain samples were collected (rats in the 0.89 g/kg/day group only received one dose of trehalose (0.89 g/kg) on this day). This time corresponds to approximately the Tmax of orally administered trehalose. […] Trehalose was measurable in the plasma 30 mins after receiving trehalose (0.89 or 2.67 g/kg) by oral gavage (Table 5). A 3-fold increase in the trehalose dose (0.89 g/kg to 2.67 g/kg) lead to an ˜6-fold increase in the trehalose plasma level, i.e. that increasing the dose produced a greater than dose-proportional increase in trehalose exposure. […] Trehalose was measurable in the brains of rats receiving trehalose (2.67 g/kg) by oral gavage (Table 5).
To better understand why administrating the same amount of trehalose by different routes led to differences in efficacy, studies were conducted to measure blood and brain levels of trehalose following administration of trehalose by 2% in the drinking water, three (3) times daily (0.89 g/kg each dose) and once daily (2.67 g/kg/day).

[2] = Plasma and brain pharmacokinetics in rats, 1 and 7 days oral administration; assay type: in vivo, Sprague-Dawley rats; details: for AUC(0-t): read-out: AUC0-12h
Description: One hundred Sprague-Dawley rats (200-260 g), female (60) and male (40), received trehalose (2.67 g/kg/day, oral gavage in sterile water) for 1 or 7 days. Groups of 5 rats (3 female, 2 male) were sacrificed at pre-dose and 15 min, 30 min, 1 h, 1.5 h, 2 h, 3 h, 4 h, 8 h and 12 h post-dose on days 1 and 7 and plasma and brain samples collected. Plasma and brain samples were analysed for trehalose levels using a validated LC-MS/MS method and plasma exposure timecourses (FIG. 1) and pharmacokinetic parameters were calculated (Table 6). Brain levels of trehalose were approximately 1% of plasma levels at all time-points (FIG. 1).

[3] = Extrapolation from animal data to human plasma exposure; details: oral, humans, 2.67 g/kg, extrapolated from rat and macaque data, read-out: trehalose plasma Cmax (estimated)
Description: On a dose per body weight basis, trehalose produced very similar plasma and brain levels in rats and macaques (see FIG. 3 and Tables 6 and 7) when dosed with 2.67 g/kg/day. We also know that a trehalose dose of 2.67 g/kg/day was efficacious in the rat and non-human primate. Therefore, it is contemplated that an efficacious dose for humans includes 2.67 g/kg which is estimated to produce a trehalose plasma Cmax of ˜10000 ng/ml. From the rat data it is also clear that a dose of 0.89 g/kg will be ineffective.

[4] = test system: Chronic MPTP-lesioned mouse; details: 1% in the drinking water; Ferguson et al. 2015; cited from earlier work
[5] = both sexes, Sprague-Dawley, po, rat brain, Day 1, 2.67 g/kg p.o.
[6] = both sexes, Sprague-Dawley, po, rat brain, Day 7, 2.67 g/kg/day p.o.
[7] = both sexes, Sprague-Dawley, po, rat plasma, Day 1, 2.67 g/kg p.o.
[8] = both sexes, Sprague-Dawley, po, rat plasma, Day 7, 2.67 g/kg/day p.o.

## OC[C@H]1O[C@H](O[C@H]2O[C@H](CO)[C@@H](O)[C@H](O)[C@H]2O)[C@H](O)[C@@H](O)[C@@H]1O [trehalose, (2R,3S,4S,5R,6R)-2-(Hydroxymethyl)-6-[(2R,3R,4S,5S,6R)-3,4,5-trihydroxy-6-(hydroxymethyl)oxan-2-yl]oxyoxane-3,4,5-triol]
[1]; brain (cerebellum), cerebellum, 2.67 g/kg once daily oral gavage, 30 min post-dose, read-out: Brain trehalose level
  concentration at 30 min: 52.8 ± 16.9 ng/mL
[1]; plasma, 0.89 g/kg 3 times daily oral gavage, 30 min after one 0.89 g/kg dose, read-out: Plasma trehalose level
  concentration at 30 min: 1130 ± 178 ng/mL
[1]; plasma, 2.67 g/kg once daily oral gavage, 30 min post-dose, read-out: Plasma trehalose level
  concentration at 30 min: 6380 ± 890 ng/mL
[1]; cerebellum, 0.89 g/kg 3 times daily oral gavage, 30 min after one 0.89 g/kg dose
  Brain trehalose level: below the limit of detection and BLQ
[1]; cerebellum, 2% in drinking water
  Brain trehalose level: below the limit of detection and BLQ
[1]; cerebellum, 2.67 g/kg once daily oral gavage, 30 min post-dose
  Brain trehalose level: measurable
[1]; 0.89 g/kg 3 times daily oral gavage, 30 min after one 0.89 g/kg dose
  Plasma trehalose level: measurable
[1]; 0.89 g/kg to 2.67 g/kg, 30 min post-dose
  increase in trehalose plasma level on 3-fold increase in dose: 6 fold and 5.6 fold
[1]; 2% in drinking water, 6 weeks
  Plasma trehalose level: below the limit of quantification and BLQ
[1]; 2.67 g/kg once daily oral gavage, 30 min post-dose
  Plasma trehalose level: measurable
[2]; [5]
  AUC(0-inf): 97 ng·h/mL
  Cmax: 87 ng/mL
  Tmax: 15 min
  half-life: 48.6 min
  AUC(0-t): 86.8 ng·h/mL
[2]; [6]
  AUC(0-inf): 76.2 ng·h/mL
  Cmax: 73 ng/mL
  Tmax: 15 min
  half-life: 63.6 min
  AUC(0-t): 65.3 ng·h/mL
[2]; [7]
  AUC(0-inf): 11100 ng·h/mL
  Cmax: 8900 ng/mL
  Tmax: 15 min
  half-life: 45.6 min
  AUC(0-t): 10900 ng·h/mL
[2]; [8]
  AUC(0-inf): 9880 ng·h/mL
  Cmax: 8340 ng/mL
  Tmax: 15 min
  half-life: 53.4 min
  AUC(0-t): 9490 ng·h/mL
[2]; both sexes, Sprague-Dawley, rat, brain, po, rats, 2.67 g/kg/day p.o., all time-points, read-out: Brain levels of trehalose as % of plasma levels
  Kp: ~0.01
[2]; rats, 2.67 g/kg/day p.o., 8 h post-dose
  trehalose in plasma or brain 8 h post-dose: no longer detectable; also recorded: No trehalose is found
[3]
  Cmax: ~10000 ng/mL
[4]
  Effect (behavioural): No behavioural
  Effect on dopamine levels: effect. Some
